Experimental findings from ChEMBL document CHEMBL3822435, “Synthesis, antiproliferative and pro-apoptotic activity of 2-phenylindoles” (Bioorg Med Chem, 2016) are described below.

The test system of data set [1] is MCF7. Kind of data set: cells. The note with it: Homo sapiens, MCF7, 72 h.
Description: Antiproliferative activity against ER-positive human MCF7 cells assessed as reduction in cell viability measured after 72 hrs by AlamarBlue assay
The test system of data set [2] is MCF7. Kind of data set: Induction of apoptosis in human MCF7 cells assessed as apoptotic cells at 10 uM measured after 72 hrs by propidium iodide staining-based flow cytometric analysis (reference value: 5.5 +/- 1.3%). Type of data set: functional.
Data set [3] has as its system MCF7. Kind of data set: Induction of apoptosis in human MCF7 cells assessed as accumulation at G2/M-phase at 10 uM measured after 72 hrs by propidium iodide staining-based flow cytometric analysis. Type of data set: functional, cell-based.
Data set [4] deals with PBMC. Kind of data set: Induction of apoptosis in human PBMCs assessed as apoptotic cells at 10 uM measured after 72 hrs by propidium iodide staining-based flow cytometric analysis (reference value: 1.5 +/- 0.6%). It is filed as cell-based.
Data set [5] concerns PBMC. Description: Induction of apoptosis in human PBMCs assessed as accumulation at G2/M-phase at 10 uM measured after 72 hrs by propidium iodide staining-based flow cytometric analysis. Type of data set: cell-based.
A further data set concerns the target T1, Estrogen receptor (Homo sapiens, UniProt P03372).
T1 sequence (P03372 whole entry): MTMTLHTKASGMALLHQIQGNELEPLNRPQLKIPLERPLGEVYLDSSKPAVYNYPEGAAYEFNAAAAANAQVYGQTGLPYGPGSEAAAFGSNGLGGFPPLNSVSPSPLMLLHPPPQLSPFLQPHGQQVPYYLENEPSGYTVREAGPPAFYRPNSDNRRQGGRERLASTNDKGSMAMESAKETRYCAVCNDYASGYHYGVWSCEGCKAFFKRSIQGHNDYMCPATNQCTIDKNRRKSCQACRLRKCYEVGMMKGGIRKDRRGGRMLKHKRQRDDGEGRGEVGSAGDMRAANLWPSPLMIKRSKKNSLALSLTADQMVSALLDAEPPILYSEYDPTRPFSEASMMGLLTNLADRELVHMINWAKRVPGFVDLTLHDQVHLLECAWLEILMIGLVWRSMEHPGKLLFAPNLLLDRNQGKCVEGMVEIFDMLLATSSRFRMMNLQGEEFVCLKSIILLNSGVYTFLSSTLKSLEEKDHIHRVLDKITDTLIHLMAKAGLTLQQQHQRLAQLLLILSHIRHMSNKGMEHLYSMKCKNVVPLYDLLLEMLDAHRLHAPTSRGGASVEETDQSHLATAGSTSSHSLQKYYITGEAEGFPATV

Another data set addresses Estrogen receptor beta (Homo sapiens, UniProt Q92731).

The source made the active and inactive calls. The rule behind the calls is not given here.

Chain of Estrogen receptor beta (Q92731 whole entry): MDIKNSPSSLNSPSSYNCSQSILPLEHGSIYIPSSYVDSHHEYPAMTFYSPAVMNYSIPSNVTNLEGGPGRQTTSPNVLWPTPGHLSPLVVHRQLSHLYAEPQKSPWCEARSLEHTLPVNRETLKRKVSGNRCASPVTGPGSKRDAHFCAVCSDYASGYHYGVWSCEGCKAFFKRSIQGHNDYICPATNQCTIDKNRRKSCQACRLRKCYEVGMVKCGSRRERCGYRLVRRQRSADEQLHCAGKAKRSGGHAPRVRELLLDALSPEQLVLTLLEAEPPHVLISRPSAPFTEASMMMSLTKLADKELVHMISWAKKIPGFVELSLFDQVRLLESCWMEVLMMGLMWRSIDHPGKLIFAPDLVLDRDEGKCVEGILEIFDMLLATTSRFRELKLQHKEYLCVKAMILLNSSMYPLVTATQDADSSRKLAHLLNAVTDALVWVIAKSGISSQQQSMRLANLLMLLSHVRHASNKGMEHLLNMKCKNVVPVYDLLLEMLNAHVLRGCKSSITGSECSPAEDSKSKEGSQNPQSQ
Description for Estrogen receptor beta: Inhibition of ER-beta (unknown origin) by Lanthascreen-FRET assay

Consider `COc1ccc(/C=C(/C(=O)N(C)CCCCCCn2c(-c3ccc(O)cc3)c(C)c3cc(O)ccc32)c2cc(OC)c(OC)c(OC)c2)cc1O`, for which, in the data set with MCF7 [1], the IC50 is 2.34 µM. Same read-out and setting: in the case of `Cc1c(-c2ccc(O)cc2)n(CCCCCCn2c(-c3ccc(O)cc3)c(C)c3cc(O)ccc32)c2ccc(O)cc12` it was 8.16 µM. With `CNCCCCCCCCCCCCn1c(-c2ccc(O)cc2)c(C)c2cc(O)ccc21`, the Activity in the data set with MCF7 [2] was 7.5%; in the data set with PBMC [4], “Non-toxic”; in the data set on PBMC [5], “Non-toxic”. For the same molecule, the result in the data set with MCF7 [3] was inactive. Moreover, the IC50 was found to be 380 nM on Estrogen receptor, 1660 nM against Estrogen receptor beta and 33 µM in the data set on MCF7 [1]. `CNCCCCn1c(-c2ccc(O)cc2)c(C)c2cc(O)ccc21`: the IC50 in the data set on MCF7 [1] is 40.7 µM. Consider `Cc1c(-c2ccc(O)cc2)n(Cc2ccc(Cn3c(-c4ccc(O)cc4)c(C)c4cc(O)ccc43)cc2)c2ccc(O)cc12`, for which half-maximal inhibition in the data set with MCF7 [1] (IC50) required 3.5 µM. `COc1cc(Cn2c(-c3ccc(O)cc3)c(C)c3cc(O)ccc32)cc(OC)c1OC` gave an IC50 with MCF7 [1] of 332 µM. With `Cc1c(-c2ccc(O)cc2)n(CCCCCCCCCCCCn2c(-c3ccc(O)cc3)c(C)c3cc(O)ccc32)c2ccc(O)cc12`, 5.24 µM corresponded to half-maximal inhibition in the data set on MCF7 [1] (IC50).

Consider `COc1ccc(/C=C(/C(=O)N(C)CCCCCn2c(-c3ccc(O)cc3)c(C)c3cc(O)ccc32)c2cc(OC)c(OC)c(OC)c2)cc1O`, for which the IC50 with MCF7 [1] was found to be 2.93 µM. In the data set on MCF7 [1], `COc1ccc(/C=C(/C(=O)N(C)CCCCn2c(-c3ccc(O)cc3)c(C)c3cc(O)ccc32)c2cc(OC)c(OC)c(OC)c2)cc1O` yielded a 50% inhibitory concentration (IC50) of 1.99 µM.

In the data set on MCF7 [1], `CCCCn1c(-c2ccc(O)cc2)c(C)c2cc(O)ccc21` displayed an IC50 of 34 µM. Molecule `CNCCCCCCCCn1c(-c2ccc(O)cc2)c(C)c2cc(O)ccc21` registered an IC50 in the data set on MCF7 [1] of 38.9 µM.

In the data set with MCF7 [1], `Cc1c(-c2ccc(O)cc2)n(Cc2ccc(O)cc2)c2ccc(O)cc12` displayed an IC50 of 38.9 µM.

`CNCCCCCn1c(-c2ccc(O)cc2)c(C)c2cc(O)ccc21` returned an IC50 in the data set on MCF7 [1] of 49 µM. For `COc1ccc(/C=C(/C(=O)N(C)CCCCCCCCn2c(-c3ccc(O)cc3)c(C)c3cc(O)ccc32)c2cc(OC)c(OC)c(OC)c2)cc1O`, in the data set on MCF7 [1], the IC50 turned out to be 2.95 µM. Same read-out and setting: in the case of `COc1ccc(-c2c(C)c3cc(OC)ccc3n2CCCCN(C)C(=O)/C(=C/c2ccc(OC)c(O)c2)c2cc(OC)c(OC)c(OC)c2)cc1` it was 81.3 µM.

In the case of `Cc1c(-c2ccc(O)cc2)n(CCCCCCCCn2c(-c3ccc(O)cc3)c(C)c3cc(O)ccc32)c2ccc(O)cc12`, half-maximal inhibition in the data set with MCF7 [1] (IC50) required 6.6 µM. As to `Cc1c(-c2ccc(O)cc2)n(CCCCCn2c(-c3ccc(O)cc3)c(C)c3cc(O)ccc32)c2ccc(O)cc12`, the IC50 in the data set on MCF7 [1] was 4.16 µM.

With `Cc1c(-c2ccc(O)cc2)n(CCCCn2c(-c3ccc(O)cc3)c(C)c3cc(O)ccc32)c2ccc(O)cc12`, the Activity in the data set with MCF7 [2] was 54.7%; with PBMC [4], 16.7%; in the data set with PBMC [5] it was “Non-toxic”. For the same molecule, the outcome in the data set with MCF7 [3] was inactive. The figures for the IC50 against Estrogen receptor, against Estrogen receptor beta and in the data set with MCF7 [1] were 436 nM, 41 nM and 2.75 µM, respectively. As to `COc1ccc(/C=C(/C(=O)N(C)CCCCCCCCCCCCn2c(-c3ccc(O)cc3)c(C)c3cc(O)ccc32)c2cc(OC)c(OC)c(OC)c2)cc1O`, the Activity in the data set on MCF7 [2] is given as 42.1%; in the data set with PBMC [4], “Non-toxic”; in the data set with PBMC [5], “Non-toxic”. Also, the outcome with MCF7 [3] was inactive. The IC50 was 574 nM at Estrogen receptor, 155 nM against Estrogen receptor beta and 1.86 µM in the data set with MCF7 [1]. In the data set with MCF7 [1], `CNCCCCCCn1c(-c2ccc(O)cc2)c(C)c2cc(O)ccc21` displayed an IC50 of 41.7 µM. On to `Cc1c(-c2ccc(O)cc2)n(CCO)c2ccc(O)cc12`, for which 17.7 µM corresponded to half-maximal inhibition in the data set with MCF7 [1] (IC50).

In the data set on MCF7 [1], `Cc1c(-c2ccc(O)cc2)n(Cc2ccc(F)cc2)c2ccc(O)cc12` yielded an IC50 of 41 µM.
